Data taken from patent US8747809B2, “Single diastereomers of 4-fluoroglutamine and methods of their preparation and use” (The Trustees Of The University Of Pennsylvania, priority 2009, dated 2014).
Entries after “also recorded” stand apart in the source; their conditions may differ.

Assays:
[1] = test system: 9 L tumor cell line; assay: In vitro cell uptake studies of the four 4-[18F]F-glutamine isomers; type: cell-based, rat; conditions: 18F-labeled isomer, 37° C., 5-120 min, compared to [3H]glutamine
Experimental: Cell uptake of four possible isomers was evaluated using 9 L tumor cell line. The cell uptake results (% dose/100 μg protein) were compared to that of [^3H] glutamine.
(§1) Because of this observation, we decided only to further investigate the (2S,4R) isomer of [^18F]4-FGln, 1. In vitro cell uptake inhibition studies were conducted in 9 L cells in order to test the specificity of [^18F]4-FGln (2S,4R), 1. Cold L-glutamine and L-serine served as the positive control inhibitors for the glutamine transporters. L-glutamine inhibits system N transporter and L-serine inhibits the ASC transporter. Three different concentrations were tested for each inhibitor ranging from 0.5 mM to 5 mM. After 30 minutes of co-incubation of L-glutamine and [^18F] […] Cold MeAIB served as the negative control, which inhibits system A transporter.
(§2) The cellular uptake of each of the four 4-[^18F]F-glutamine isomers (2S,4R), (2S,4S), (2R,4S) and (2R,4R) were studied in (9 L) rat brain gliosarcoma cells. L-[3,4-^3H(N)]-glutamine, >97%, 250 μCi (9.25 MBq), was purchased from Perkin Elmer and was used as a control for all of the cellular uptake experiments conducted. […] All four of the 4-[^18F]F-glutamine isomers and the L-[3,4-^3H(N)]-glutamine was dissolved in PBS solution and was added to each well (500,000 cpm/mL/well) and incubated at 37° C. for 5, 30, 60, 120 min. At the end of the incubation period, the wells were aspirated and then the residual cells were washed 3 times with 1 mL ice cold PBS without Ca^2+ and Mg^2+. After washing with cold PBS, 350 μL 1M NaOH was used to lyse the cells. The lysed cells were collected onto filter paper. The filter papers were placed in scintillation vials and counting fluid was added (7 mL ecolite+) and the vials were then counted with a beta counter 18-24 h later. For dual-isotope studies using 4-[^18F]F-glutamine isomers and L-[3,4-^3H(N)]-glutamine, the vials were counted first using a gamma counter to obtain ^18F counts. The beta counts were then obtained one day later after the ^18F was fully decayed. 100 μL of the cell lysate was used for the determination of the protein concentration by Lowry method.

[2] = test system: M/tomND spontaneous human mammary tumors; assay: Dynamic small animal PET (A-PET) imaging; type: in vivo, mice; conditions: ~300 μCi via lateral tail vein, 120 minutes imaging, myc gene up-regulated
Experimental: Dynamic small animal PET (A-PET) imaging studies were conducted with 4-[^18F]F-glutamine (2S,4R) isomer. All scans were performed on a dedicated animal PET scanner (Mosaic by Phillips) (Surti, 2005). Transgenic mice bearing M/tomND spontaneous human mammary tumors were used in this study. There are many advantages to using this transgenic mouse model. A doxycycline sensitive promoter genetically engineers these mice to express the myc gene. These tumors spontaneously arise vs. traditional xenograph tumors. […] When doxycycline is removed, the myc gene is down regulated. This model was chosen because these compounds will allow a direct correlation between true glutamine uptake and the level of myc gene expression.
Glutamine uptake within the M/tomND tumor was examined by injecting ˜300 μCi of the [^18F]-4F-glutamine (2S,4R) isomer via the lateral tail vein. Imaging commenced immediately after the injection of the tracer and continued for a time period of 120 minutes.

[3] = test system: 9 L cells; assay: In vitro inhibition studies of 4-[18F]F-glutamine (2S,4R) uptake; type: cell-based, rat; conditions: for effect of inhibitor on tracer uptake / transporter (in words): 0.5 mM to 5 mM; for uptake of [18F]4-FGln (2S,4R) in presence of inhibitor: 30 minutes co-incubation, 5 mM stated for MeAIB, control 3.56
Experimental: as §1, §2
To test the specificity of the 4-[^18F]F-glutamine (2S,4R) isomer, inhibition studies were conducted using 9 L cells. The tracer was incubated at 37° C. for 30 min. The cells were processed as previously described as above. Cold L-glutamine and L-Serine served as the positive control inhibitors for the glutamine transporters. L-glutamine inhibits system N transporter and L-Serine inhibits the ASC transporter. Cold MeAIB served as the negative control, which inhibits system A transporter. Three different concentrations were tested for each inhibitor ranging from 0.5 mM to 5 mM.

[4] = In vivo biodistribution study in normal mice; conditions: for % Dose/Gram, Blood / % Dose/Gram, Bone / % Dose/Gram, Brain / % Dose/Gram, Heart / % Dose/Gram, Kidney / % Dose/Gram, Liver / % Dose/Gram, Lung / % Dose/Gram, Muscle / % Dose/Gram, Pancreas / % Dose/Gram, Skin / % Dose/Gram, Spleen: normal ICR mice, n = 5
Experimental: To test the [^18F]-4F-glutamine isomers as a novel tumor PET imaging agents, we tested the [^18F]-4F-glutamine (2S,4R) (1) in normal ICR mice weighing 20-25 grams. 5 mice per group were used for the biodistrubution study. The mice were put under anesthesia with the use of isoflurane and 0.15 mL saline solution containing 25 μCi of each isomer was injected via the lateral tail vein. The mice were sacrificed at 2, 30, 60, 120 and 240 minutes post-injection by cardiac excision while under isoflurane anesthesia. The organs of interest were removed, weighed and the radioactivity was counted with a gamma counter (Packard Cobra). The percent dose per gram was calculated by a comparison of the tissue activity counts to counts of 1.0% of the initial dose. The initial dose consists of 100 times diluted aliquots of the injected material measured at the same rate.

NC(=O)[C@H](F)C[C@H](N)C(=O)O [Compound 1, (2S,4R)-2,5-Diamino-4-fluoro-5-oxopentanoic acid]
cell uptake in 9 L cells (in words) ([1]; listed as 4-FGln (2S,4R)): high uptake; also recorded: excellent uptake

NC(=O)[C@H]([18F])C[C@H](N)C(=O)O [Compound 1, (2S,4R)-2,5-Diamino-4-fluoro-5-oxopentanoic acid]
cell uptake in 9 L cells (in words) [1]: highest uptake | tumor uptake in PET images (in words) [2]: taken up in the tumor sites | uptake of [18F]4-FGln (2S,4R) without inhibitor (control) ([3]; 30 min, 37° C.): 3.56 % dose/100 ug protein | % Dose/Gram, Blood ([4]; 2 min post-injection, iv): 6.19 ± 0.83 % Dose/Gram | % Dose/Gram, Blood ([4]; 30 min post-injection, iv): 2.72 ± 0.17 % Dose/Gram | % Dose/Gram, Blood ([4]; 60 min post-injection, iv): 2.05 ± 0.16 % Dose/Gram | % Dose/Gram, Blood ([4]; 120 min post-injection, iv): 0.83 ± 0.12 % Dose/Gram | % Dose/Gram, Blood ([4]; 240 min post-injection, iv): 0.48 ± 0.06 % Dose/Gram | % Dose/Gram, Bone ([4]; 2 min post-injection, iv): 3.93 ± 0.37 % Dose/Gram | % Dose/Gram, Bone ([4]; 30 min post-injection, iv): 5.64 ± 0.69 % Dose/Gram | % Dose/Gram, Bone ([4]; 60 min post-injection, iv): 7.93 ± 1.02 % Dose/Gram | % Dose/Gram, Bone ([4]; 120 min post-injection, iv): 14.4 ± 1.31 % Dose/Gram | % Dose/Gram, Bone ([4]; 240 min post-injection, iv): 19.4 ± 0.50 % Dose/Gram | % Dose/Gram, Brain ([4]; 2 min post-injection, iv): 0.54 ± 0.05 % Dose/Gram | % Dose/Gram, Brain ([4]; 30 min post-injection, iv): 0.51 ± 0.05 % Dose/Gram | % Dose/Gram, Brain ([4]; 60 min post-injection, iv): 0.53 ± 0.07 % Dose/Gram | % Dose/Gram, Brain ([4]; 120 min post-injection, iv): 0.57 ± 0.05 % Dose/Gram | % Dose/Gram, Brain ([4]; 240 min post-injection, iv): 0.45 ± 0.06 % Dose/Gram | % Dose/Gram, Heart ([4]; 2 min post-injection, iv): 4.31 ± 0.32 % Dose/Gram | % Dose/Gram, Heart ([4]; 30 min post-injection, iv): 3.16 ± 0.25 % Dose/Gram | % Dose/Gram, Heart ([4]; 60 min post-injection, iv): 2.86 ± 0.47 % Dose/Gram | % Dose/Gram, Heart ([4]; 120 min post-injection, iv): 1.86 ± 0.24 % Dose/Gram | % Dose/Gram, Heart ([4]; 240 min post-injection, iv): 1.24 ± 0.19 % Dose/Gram | % Dose/Gram, Kidney ([4]; 2 min post-injection, iv): 16.1 ± 1.03 % Dose/Gram | % Dose/Gram, Kidney ([4]; 30 min post-injection, iv): 9.93 ± 0.52 % Dose/Gram | % Dose/Gram, Kidney ([4]; 60 min post-injection, iv): 7.60 ± 0.84 % Dose/Gram | % Dose/Gram, Kidney ([4]; 120 min post-injection, iv): 2.15 ± 0.34 % Dose/Gram | % Dose/Gram, Kidney ([4]; 240 min post-injection, iv): 1.25 ± 0.21 % Dose/Gram | % Dose/Gram, Liver ([4]; 2 min post-injection, iv): 6.92 ± 0.92 % Dose/Gram | % Dose/Gram, Liver ([4]; 30 min post-injection, iv): 6.23 ± 0.50 % Dose/Gram | % Dose/Gram, Liver ([4]; 60 min post-injection, iv): 5.70 ± 0.62 % Dose/Gram | % Dose/Gram, Liver ([4]; 120 min post-injection, iv): 2.46 ± 0.26 % Dose/Gram | % Dose/Gram, Liver ([4]; 240 min post-injection, iv): 1.30 ± 0.18 % Dose/Gram | % Dose/Gram, Lung ([4]; 2 min post-injection, iv): 7.15 ± 0.76 % Dose/Gram | % Dose/Gram, Lung ([4]; 30 min post-injection, iv): 5.36 ± 0.49 % Dose/Gram | % Dose/Gram, Lung ([4]; 60 min post-injection, iv): 4.37 ± 0.28 % Dose/Gram | % Dose/Gram, Lung ([4]; 120 min post-injection, iv): 1.69 ± 0.10 % Dose/Gram | % Dose/Gram, Lung ([4]; 240 min post-injection, iv): 1.03 ± 0.15 % Dose/Gram | % Dose/Gram, Muscle ([4]; 2 min post-injection, iv): 1.62 ± 0.10 % Dose/Gram | % Dose/Gram, Muscle ([4]; 30 min post-injection, iv): 2.48 ± 0.16 % Dose/Gram | % Dose/Gram, Muscle ([4]; 60 min post-injection, iv): 2.86 ± 0.34 % Dose/Gram | % Dose/Gram, Muscle ([4]; 120 min post-injection, iv): 1.81 ± 0.26 % Dose/Gram | % Dose/Gram, Muscle ([4]; 240 min post-injection, iv): 0.94 ± 0.15 % Dose/Gram | % Dose/Gram, Pancreas ([4]; 2 min post-injection, iv): 17.2 ± 1.00 % Dose/Gram | % Dose/Gram, Pancreas ([4]; 30 min post-injection, iv): 19.7 ± 2.16 % Dose/Gram | % Dose/Gram, Pancreas ([4]; 60 min post-injection, iv): 17.5 ± 2.28 % Dose/Gram | % Dose/Gram, Pancreas ([4]; 120 min post-injection, iv): 9.57 ± 1.22 % Dose/Gram | % Dose/Gram, Pancreas ([4]; 240 min post-injection, iv): 5.92 ± 0.87 % Dose/Gram | % Dose/Gram, Skin ([4]; 2 min post-injection, iv): 2.72 ± 0.05 % Dose/Gram | % Dose/Gram, Skin ([4]; 30 min post-injection, iv): 4.01 ± 0.24 % Dose/Gram | % Dose/Gram, Skin ([4]; 60 min post-injection, iv): 2.94 ± 0.68 % Dose/Gram | % Dose/Gram, Skin ([4]; 120 min post-injection, iv): 2.17 ± 0.16 % Dose/Gram | % Dose/Gram, Skin ([4]; 240 min post-injection, iv): 1.25 ± 0.13 % Dose/Gram | % Dose/Gram, Spleen ([4]; 2 min post-injection, iv): 7.51 ± 0.44 % Dose/Gram | % Dose/Gram, Spleen ([4]; 30 min post-injection, iv): 5.39 ± 0.72 % Dose/Gram | % Dose/Gram, Spleen ([4]; 60 min post-injection, iv): 4.22 ± 0.38 % Dose/Gram | % Dose/Gram, Spleen ([4]; 120 min post-injection, iv): 2.02 ± 0.16 % Dose/Gram | % Dose/Gram, Spleen ([4]; 240 min post-injection, iv): 1.15 ± 0.14 % Dose/Gram | pancreas to liver ratio ([4]; after 30 min, normal mice, iv): 4 to 1 | in vivo de-fluorination (in words) ([4]; inferred from increasing bone uptake at later time points): likely that there was in vivo de-fluorination

NC(=O)[C@@H](F)C[C@@H](N)C(=O)O [Compound 3, (2R,4S)-4-FGln]
cell uptake in 9 L cells (in words) [1]: lower cell uptake

NC(=O)[C@H](F)C[C@@H](N)C(=O)O [Compound 4, (2R,4R)-4-FGln]
cell uptake in 9 L cells (in words) [1]: lower cell uptake

NC(=O)CC[C@H](N)C(=O)O [L-glutamine]
effect of inhibitor on tracer uptake / transporter (in words) ([3]; 30 min): clearly inhibited | uptake of [18F]4-FGln (2S,4R) in presence of inhibitor [3]: 0.49 % dose/100 ug protein | inhibition at 5000 µM ([3]; Rattus norvegicus, 0.5 h, 30 min, [5 mM], read-out: inhibition of [18F]4-FGln (2S,4R) uptake): ~90%

N[C@@H](CO)C(=O)O [L-serine]
effect of inhibitor on tracer uptake / transporter (in words) ([3]; 30 min): considerable inhibition | uptake of [18F]4-FGln (2S,4R) in presence of inhibitor [3]: 1.41 % dose/100 ug protein

CNC(C)(C)C(=O)O [MeAIB]
effect of inhibitor on tracer uptake / transporter (in words) ([3]; 30 min): little to no effect | uptake of [18F]4-FGln (2S,4R) in presence of inhibitor [3]: 3.69 % dose/100 ug protein
